According to patent US20240166596A1, “SULFAMOYL BENZENE DERIVATIVES AND USES THEREOF” (AphioTx Inc., priority 2021, published 2024):

Experiments:
[1] = target: T1, Panx1 channel (Mus musculus, UniProt Q9JIP4); experiment: YO-PRO-1 dye uptake assay in BV-2 microglia-like cells (BzATP stimulation); type: cell-based; settings: BV-2 cells
T1 construct: endogenous in cells; host or cells: BV-2 microglia-like cells
Method: After plating into 96 well plates, cell culture media was removed and BV-2 cells were incubated in extracellular solution (ECS) (140 mM NaCl, 4.5 mM KCl, 1.3 mM CaCl2, 10 mM HEPES, and 33 mM glucose; pH7.35, osmolarity 315 mOsm) containing YO-PRO-1 dye (2.5 μM, Invitrogen). After a 5 minute baseline recording, cells were stimulated with 3′-O-(4-benzoyl)benzoyl adenosine 5′-triphosphate (BzATP) (150 μM, Toronto Research Chemicals) and dye-uptake was recorded for 30 minutes. Cell viability was assessed immediately after the 30 minute recording by application of ionomycin (1 μM, Sigma). […] YO-PRO-1 fluorescent emission (491/509) was detected using a FilterMax F5 plate reader (Molecular Devices). Drugs used include (−)-norepinephrine (100 pM-1 μM, Sigma), probenecid (1 mM, Life Technologies), and Compound 1 (10 nM, Derksen et al). Drugs were bath applied in ECS containing YO-PRO-1 dye and incubated at 37° C. for 10 minutes prior to BzATP stimulation. Fluorescent emission at 30 minutes post-BzATP was calculated as an average of the entire imaging field as percent change from baseline, and responses at 30 minutes were averaged over multiple independent experiments. Individual traces of BV-2 YO-PRO-1 dye uptake were taken at 10 minute intervals and represent the average response of all BV-2 cells in the recorded view from a subset of experiments.
BV-2 microglia-like cells were maintained in DMEM (Gibco) containing 5% fetal bovine serum (Gibco) and 1% penicillin-streptomycin (Gibco) with 5% CO2.
The compounds tested were designed to more readily penetrate the blood brain barrier and were therefore predicted to require a lower dose to produce similar effects. Prior to testing the compounds in animals, the compounds were first tested in BV2 microglia-like cells using the YO-PRO-1 Dye Uptake Assay. By using this assay, Panx1 channel activity in response to BzATP stimulation of P2X7, an upstream receptor that causes Panx1 pore formation can be assessed. YO-PRO-1 is a large molecular weight dye that can only enter the cell through large pore ion channels such as Panx1, therefore its uptake correlates with Panx1 channel opening. BzATP stimulation causes a significant increase in YO-PRO-1 dye uptake in cells pre-treated with ECS and vehicle solution (0.1% DMSO) (FIG. 1, B).

[2] = tested on: C57BL/6 mice; experiment: Conditioned place aversion (CPA) after naloxone-precipitated withdrawal; type: in vivo; settings: for CPA: 0.1 mg/kg i.p. as printed
From the text: Adult male C57BL/6 mice (7-14 weeks old) were used for conditioned place aversion experiments (CPA). Animals were group housed under reverse light-dark cycle with ad libitum access to food and water and were randomly allocated to different test groups. All procedures were approved by the University of Calgary and Washington University Animal Care Committees and are in accordance with the guidelines of the Canadian Council on Animal Care and the US National Institutes of Health Guide for the Care of Use of Laboratory Animals.
Place conditioning was performed in a custom-built clear plexiglass apparatus (28×28×19 cm) divided into two conditioning chambers distinct in tactile and visual cues. All locomotor behaviours were recorded using monochrome GigE cameras and quantified offline using EthoVision XT 11 software (Noldus). The CPA score was calculated by subtracting time spent in the conditioned chamber during baseline (pre-test) from time spent in the same chamber postconditioning. Mice were placed in a two-chamber conditioning apparatus and allowed free access to both chambers for 15 min to assess baseline preference. Mice were treated with escalating doses of morphine, control animals received equivalent volumes of 0.9% sterile saline. Two hours after the final morphine or saline injection on day 5, mice were injected with naloxone and confined to one side of the conditioning apparatus for 30 min. The conditioned place aversion (CPA) test occurred 1 and 7 days post-conditioning, where mice were allowed free access to the conditioning apparatus for 15 min. […]
Unpaired t tests were applied to compare differences between two groups, one-way ANOVA with Bonferroni post hoc tests were applied to compare differences between three or more groups. […] All data are expressed as mean±SEM. […] After assessing the normality of sample data using Shapiro-Wilk test, statistical significance was determined by two-way repeated-measures ANOVA followed by two-tailed Sidak post hoc test. All data were presented as mean±SEM and analyzed using GraphPad Prism 9 (GraphPad Software, Inc., California).

T1 sequence (Q9JIP4 whole entry): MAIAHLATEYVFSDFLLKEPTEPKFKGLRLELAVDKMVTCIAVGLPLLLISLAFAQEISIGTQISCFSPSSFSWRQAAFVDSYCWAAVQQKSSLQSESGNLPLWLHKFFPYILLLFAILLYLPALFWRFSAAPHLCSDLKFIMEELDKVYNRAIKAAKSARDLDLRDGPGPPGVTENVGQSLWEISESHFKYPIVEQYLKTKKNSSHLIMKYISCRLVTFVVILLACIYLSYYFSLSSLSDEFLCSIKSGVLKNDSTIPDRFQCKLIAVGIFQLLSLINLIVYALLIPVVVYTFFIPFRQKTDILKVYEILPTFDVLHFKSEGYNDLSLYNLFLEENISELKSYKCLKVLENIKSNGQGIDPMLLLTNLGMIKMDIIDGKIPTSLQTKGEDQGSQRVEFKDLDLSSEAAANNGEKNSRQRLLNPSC

Potency at inhibiting Panx1 channel opening relative to probenecid [1]: more potent than probenecid | Concentration blocking Panx1 channel activity, fold lower than probenecid ([1]; Compound 1 10 nM vs probenecid 1 mM): 100,000 fold | Panx1 channel activity (BzATP-stimulated YO-PRO-1 dye uptake) ([1]; Compound 1 10 nM, 10 min pre-treatment, BzATP 150 μM, 30 min): significantly blocked
Compound: CCCN(CCC)S(=O)(=O)c1ccc(C(O)(C(F)(F)F)C(F)(F)F)cc1 [Compound 1, 4-(1,1,1,3,3,3-hexafluoro-2-hydroxypropan-2-yl)-N,N-dipropylbenzenesulfonamide]
CPA ([2]; 1 day after naloxone-precipitated withdrawal): significantly less CPA | CPA ([2]; 1 day and 7 days after naloxone-precipitated withdrawal): significantly less CPA | CPA score (aversion to the naloxone-paired chamber) ([2]; 0.5 mg/kg i.p., morphine-dependent mice, vs vehicle): significant reduction in aversion
